We go through one molecule from paper PMC6438990 (Cellular and Molecular Gastroenterology and Hepatology, 2019).

Broadly, the IC50 is the concentration at which inhibition is half-maximal. Low readings indicate higher potency, high ones lower potency.

In the test the target is T1, SLC26A3 (DRA, down-regulated in adenoma) (Homo sapiens, UniProt P40879).
T1 sequence (P40879 1-764): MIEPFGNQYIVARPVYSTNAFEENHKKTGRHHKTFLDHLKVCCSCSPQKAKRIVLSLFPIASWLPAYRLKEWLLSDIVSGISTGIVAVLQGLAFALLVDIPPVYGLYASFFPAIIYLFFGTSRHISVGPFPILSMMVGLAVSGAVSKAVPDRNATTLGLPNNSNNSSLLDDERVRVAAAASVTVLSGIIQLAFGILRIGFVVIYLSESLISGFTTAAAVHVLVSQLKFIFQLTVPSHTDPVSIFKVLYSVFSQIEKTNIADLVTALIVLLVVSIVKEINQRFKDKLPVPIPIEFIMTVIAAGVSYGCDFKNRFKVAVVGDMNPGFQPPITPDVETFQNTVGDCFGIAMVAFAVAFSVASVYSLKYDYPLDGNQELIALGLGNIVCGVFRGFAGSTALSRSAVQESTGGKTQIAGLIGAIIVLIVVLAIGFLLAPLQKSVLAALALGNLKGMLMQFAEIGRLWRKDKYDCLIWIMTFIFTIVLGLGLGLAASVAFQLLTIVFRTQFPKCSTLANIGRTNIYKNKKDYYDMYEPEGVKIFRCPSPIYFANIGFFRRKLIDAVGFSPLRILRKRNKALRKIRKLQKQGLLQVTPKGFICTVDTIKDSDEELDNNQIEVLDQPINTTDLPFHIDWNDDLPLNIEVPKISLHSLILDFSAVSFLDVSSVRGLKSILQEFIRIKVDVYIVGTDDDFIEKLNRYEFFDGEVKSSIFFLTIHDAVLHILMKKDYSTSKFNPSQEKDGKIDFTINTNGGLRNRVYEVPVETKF
Format: cell-based.

`Cc1c(CC(=O)O)c(=O)oc2c(C)c(OCc3cccc(Br)c3)ccc12` [DRAinh-A250] registered a 50% inhibitory concentration (IC50) of 120 ± 40 nM.
